Data published in patent publication US20180009859A1, “PHARMACOLOGICAL MODULATORS OF GABAA RECEPTORS AND THEIR USE” (priority 2015, published 2018).
Read-outs that look alike come from different tables or passages of the source.

Experiments:
GABAA receptors in SPMs = type: binding, rat
[1] = target: GABAA receptors in rat brain synaptic plasma membranes (SPMs) (rat); assay: competition with 40 nM [3H]muscimol for rat brain SPMs, nonlinear fit for an allosteric modulator
[2] = target: GABAA receptors of mouse hippocampal neurons (mouse); assay: cell-based or functional assay
[3] = target: GABAA receptors in rat brain synaptic plasma membranes (SPMs) (rat); assay: competition with 125I-rMmTX2 for rat brain SPMs
[4] = target: GABAA receptors in rat brain synaptic plasma membranes (SPMs) (rat); assay: competition with 40 nM [3H]muscimol for rat brain SPMs
hippocampal neurons [5] = type: cell-based, mouse; conditions: 100 μM PTX, n=5
[6] = system: GABAA receptors of hippocampal neurons; type: cell-based, mouse
[7] = target: GABAA receptors of hippocampal neurons; conditions: reported values; cited from earlier work
hippocampal neurons [8] = assay: Calcium imaging of hippocampal neurons (Ca^2+ oscillations); type: cell-based, rat; conditions: 0.3 μM muscimol alone, n=9
[9] = read-out: EC50 for reducing ^125I-MmTX2 binding to SPMs

NCCCC(=O)O [GABA, γ-aminobutyric acid]
nH (Hill slope) for reducing ^125I-MmTX2 binding (GABAA receptors in SPMs): 0.99±0.18

recombinant MmTX1 (rMmTX1) (peptide)
Kd [1]: 4.9 nM
factor of increase of the GABAA current elicited by 5 µM muscimol, with 1 nM rMmTX1 [2]: 1.24 fold
factor of increase of the GABAA current elicited by 5 µM muscimol, with 10 nM rMmTX1 [2]: 1.22 fold
Ki [3]: 3 nM
log Ki [3]: -8.52
percent of the total [^3H]muscimol binding capacity competed [4]: 40%

COc1cc2c3cc1Oc1cc(ccc1O)C[C@@H]1c4c(cc(OC)c(O)c4Oc4ccc(cc4)C[C@@H]3N(C)CC2)CC[N+]1(C)C [d-tubocurarine]
competition with ^125I-rMmTX2 for binding to SPMs (GABAA receptors in SPMs; ligand 10 μM): no competition is observed

cardiotoxin [CTX]
competition with ^125I-rMmTX2 for binding to SPMs (GABAA receptors in SPMs; ligand 10 μM): does not displace

N[C@@H](CCC(=O)O)C(=O)O [glutamate]
competition with ^125I-rMmTX2 for binding to SPMs (GABAA receptors in SPMs; ligand 0.1 mM): does not compete

CN1[C@@H]2CC[C@H]1C[C@@H](OC(=O)C(CO)c1ccccc1)C2 (some centres unmarked) [atropine]
competition with ^125I-rMmTX2 for binding to SPMs (GABAA receptors in SPMs): does not compete

COc1ccc(-c2ccc(=N)n(CCCC(=O)O)n2)cc1 [gabazine]
nH (Hill slope) for reducing ^125I-MmTX2 binding (GABAA receptors in SPMs): 1.00±0.07
EC50 (GABAA receptors in SPMs; [9]): 200 nM

wild-type (WT) MmTX2, micrurotoxin2 purified from Micrurus mipartitus venom (peptide)
Ki [3]: 0.8 nM
log Ki [3]: -9.09

recombinant MmTX2 (rMmTX2) (peptide)
Ki [3]: 3.7 nM
log Ki [3]: -8.44

picrotoxin [PTX]
action potential frequency (hippocampal neurons [5]): increases more dramatically when compared to sMmTX1
nH for potentiating ^125I-MmTX2 binding capacity (GABAA receptors in SPMs): +1.05±1.16
EC50 (GABAA receptors in SPMs; read-out: EC50 for potentiating ^125I-MmTX2 binding capacity to SPMs): 3700 nM

CN1C(=O)CN=C(c2ccccc2)c2cc(Cl)ccc21 [diazepam]
nH (Hill slope) for reducing ^125I-MmTX2 binding (GABAA receptors in SPMs): −0.96±0.07
EC50 (GABAA receptors in SPMs; [9]): 4900 nM

NCc1cc(=O)[nH]o1 [muscimol, reference compound]
IC50 ([6]; 100 nM rMmTX1, read-out: IC50 of muscimol for abolishing the potentiating effect of rMmTX1): 1100 nM
nH coefficient of GABAA receptor current amplitude ([6]; muscimol alone): 1.4
EC50 ([6]; muscimol alone, Hill fit, read-out: EC50 of GABAA receptor current amplitude): 4100 nM
EC50 [7]: 5400 to 24000 nM
frequency of Ca^2+ spikes compared to cells perfused with extracellular saline solution (hippocampal neurons [8]): 98.0±4.8%
nH (Hill slope) for reducing ^125I-MmTX2 binding (GABAA receptors in SPMs): 1.08±0.24
EC50 (GABAA receptors in SPMs; sigmoidal dose-response fit, read-out: EC50 for reducing ^125I-MmTX2 binding to SPMs): 2100 nM
